Measurements as given in US11779600B2, “Methods of treating or preventing alzheimer's disease and associated conditions” (CEDARS-SINAI MEDICAL CENTER, priority 2016, dated 2023).

Tested on: OPN
Assay: OPN expression in primary bone marrow-derived macrophages (qICC, ELISA)
Assay type: cell-based, mouse
Details: for increase in OPN production/expression (qICC): without Aβ, vs untreated MΦ^BM (FIG. 14D)
Procedure: For MΦ^BM cells, the cells in each well were lifted by 2 mM EDTA-PBS, collected in tubes, and centrifuged. Cell pellets were lysed and re-suspended in a cocktail of RIPA buffer supplemented with 1% protease inhibitors (Thermo Scientific), and stored at −80° C. until use.
To test amyloid-β phagocytosis by macrophage, in repeated experiments monocytes were isolated from the bone marrow of wild-type mice (n=18 mice) and differentiated into macro-phage by 7-day cultivation in complete RPMI-1640 medium (#21870; Life Technologies) with 10% serum and 20 ng/ml MCSF (#315-02; PeproTech). Bone marrow-derived macrophages (MΦBM) were generated from femurs and tibiae cultured for 6-7 days in complete RPMI 1640 medium (Life Technologies) with 10% FBS, 100 U/ml penicillin, 100 μg/ml streptomycin, 2 mM L-glutamine and 20 ng/ml MCSF (PeproTech). Primary cultures of macrophage were then plated at 1.2×10^5 cells per well (3-4 wells for each condition) in 24-well tissue-culture plates on glass cover-slips overnight. Next, macrophages were either treated with 30 μg/ml GA (Copaxone®; TEVA Neuroscience), Brefeldin A (BFA; Sigma, 1X), or 10 μM Minocycline (Sigma) for the duration of 1, 3, or 24 h, or not treated (control group). Before addition of fibrillar amyloid-β1-42, the cells were chilled in a 4° C. ice bath for 5 min; immediately after addition of the preformed fibrillar amyloid-β1-42 (100 nM), the plates were centrifuged at 515g in 25° C. followed by incubation at 37° C. for 30 or 60 min. The cells were then rinsed with amyloid-β-free medium to remove non-incorporated amyloid-β and later washed twice with PBS. Methanol (99.8%) at −20° C. for 20 min or 4% paraformaldehyde at room temperature for 12 min was used for fixation of the cells followed by repeated washes with PBS. For immunostaining, the cells were first stained using the mouse anti-human amyloid-β mAb clone 6E10 (1:100; SIG-39320; Covance), rat anti-CD68 mAb clone FA-11 (1:100; ab53444; Abcam), rat anti-CD36 mAb clone MF3 (1:200; ab80080; Abcam), rat anti-CD204 scavenger receptor type I/II (SCARA1) mAb (1:100; MCA1322; AbD Serotec), rabbit anti-CD163 pAb (1:100; orb13303; Biorbyt), and goat anti-MMP-9 pAb (1:100; AF909; R&D systems). Secondary polyclonal antibodies included donkey anti-mouse, anti-rat, anti-rabbit, and anti-goat conjugated with Cy2, Cy3 or Cy5 (1:200; Jackson ImmunoResearch Laboratories). The cells were mounted using ProLong® Gold with DAPI (Molecular Probes, Life Technologies). Several fields (minimum n=5 randomly selected per group) were obtained from each well using a Carl Zeiss Axio Imager Z1 ApoTome-equipped microscope (an average of 120 cells in each field). Images were obtained using the same exposure time in each occasion. The fluorescent signal and its total area were determined and quantified by the conversion of individual images to greyscale and standardizing to baseline using histogram-based thresholds with NIH ImageJ software. The ‘mean area per cell’ was a result of a numerical average of the individual cell's immunoreactive area per field. The ‘area/cell’ measures the total fluorescent signal (area) divided by the total number of cells (DAPI count) of the same field (image). For all experiments, the investigators were blinded to the treatment condition.
To investigate the impact of GA on OPN expression in macrophages, a series of in vitro studies using primary MΦ^BM was performed. BM was isolated from young WT donor mice, differentiated into mature macrophages, pretreated overnight with GA ([…]; GA-MΦ^BM) and exposed to pre-formed Aβ1-42 fibrils. […] Since MΦ^BM constitutively express and secrete OPN into the extracellular matrix, OPN production by inhibiting secretion with Brefeldin A (BFA) pretreatment was assessed (FIG. 14C). Indeed, newly generated OPN was trapped by BFA, increasing its intracellular accumulation. […] GA further elevated OPN production in BFA-pretreated MΦ^BM (FIG. 14C). […]

Substance: glatiramer acetate [GA]
- increase in OPN in GA-treated MΦ (FIG. 5D): 2 fold
- increase of OPN expression in MΦ^BM (GA pretreated, 100 nM fibrillar Aβ1-42 for 30 min, qICC and ELISA): 2.3-2.7 fold
- increased OPN levels in cell lysates (ELISA) (with BFA (FIG. 14E)): 1.4 fold
- increase in OPN production/expression (qICC) (with BFA, GA overnight 30 µg/ml): 1.6 fold
- increased OPN levels in cell lysates (ELISA) (without BFA (FIG. 14E)): 2.3 fold
- increase in OPN production/expression (qICC) (without BFA, GA overnight): 2.5 fold
